Assay results: patent US20100120690A1, “Polypeptides Having Antimicrobial Activity and Polynucleotides Encoding Same” (Novozymes Adenium Biotech A/S, priority 2005, published 2010)

Tested on: Staphylococcus carnosus ATCC51365
Assay: Yeast screening assay: radial diffusion assay of yeast supernatants
Assay type: cell-based
Parameters: key: An activity of 3 is better than Plectasin; An activity of 2 corresponds to the activity of Plectasin; 1 is worse than Plectasin
Conditions: yeast supernatant, clearing zone in radial diffusion assay
Experimental: A range of antimicrobial polypeptides, which are variants of SEQ ID NO: 1 (Plectasin), were tested for antimicrobial activity by expressing them in S. cerevisae and screening the supernatant of the yeast transformants for antimicrobial activity against Staphylococcus carnosus ATCC51365.
Radial Diffusion Assay was carried out as described in Methods in Molecular Biology, Vol. 78, Antibacterial peptide protocol, William M. Shafer, Human Press.
200-300 yeast transformant colonies were plated on 14 cm round plates containing 25 mL SC growth medium supplemented with 1.5% galactose, 0.5% glucose and 1.5% agarose. Plates were incubated for three hours at room temperature, overlaid with 25 mL of the same growth medium and allowed to grow for three days at 30° C. Then the plates were overlaid with 25 mL of LB growth medium containing 1.5% agarose and 10^5 cells of the indicator strain Staphylococcus carnosus and incubated at 30° C. overnight to allow growth of the bacterial cells. Next day, the plates were stained with 1.5 mM MTT to facilitate visualization of the clearing zones.
Yeast colonies creating clearing zones were transferred to microtiter plates containing 200 micro-L of SC growth medium supplemented with 2% glucose and ampicillin (100 mg/L). Such plates designated “master plates” were incubated for 2 days at 30° C. with shaking at 450 rpm to allow yeast growth.
10 micro-L SC growth medium from each well of the master plates were transferred to new microtiter plates containing 200 micro-L SC growth medium with 1.5% galactose and 0.5% glucose. These plates were called daughter plates and were incubated for 3 days at 30° C. under 450 rpm shaking to allow yeast growth and peptide synthesis.
Finally a Radial Diffusion Assay (RDA) was performed following the protocol described in Methods in Molecular Biology to analyse and quantify the antimicrobial activity of the yeast supernatants against S. carnosus.
Briefly, 30 mL of minimal underlay medium containing 1% agarose and 5×10^5 cfu/mL of S. carnosus was poured in an omnitray plate (Nunc, 242811). A Nunc TSP plate (#445497) was inserted immediately on the plate to allow a 96 well pattern formation. Once the media had solidified, the TSP plate was removed and 10 micro-L of yeast supernatant samples were applied on the holes. Plates were incubated 3 hours at 37° C. and overlaid with 15 mL of LB agar growth medium. Finally, plates were incubated overnight at 37° C. and coloured with 1.5 mM MTT to visualize the clearing zones.
Inspection and measurements of the clearing zones was performed on the plates. The corresponding yeast clones resulting in clearing zones of similar or increased size than the clones encoding for wild type plectasin were picked from the master plates and transferred to agar plates containing SC growth medium with 2% glucose and ampicillin (100 mg/L). Such plates were incubated for further 2 days at 30° C. to allow yeast growth. Subsequently, colony PCR was performed followed by sequence analysis to identify amino acid changes in the plectasin sequence.
An activity of 2 corresponds to the activity of Plectasin. An activity of 3 is better than Plectasin, and 1 is worse than Plectasin.

Sequence | Activity (antimicrobial activity relative to the activity of plectasin)
GFGCNGPWDEDDMQCHNHCKSIKGYKGGYCAKNGFVCKCY [Mutation G33N] | 2
GFGCNGPWDEDDMQCHNHCKSIKKYKGGYCAKGGFVCKCY [Mutation G24K] | 3
GFGCNGPWDEDDMQCHNHCKSIKGYKGGYCAKGGFTCKCY [Mutation V36T] | 3
GFGCNGPWDEDDMQCHNHCKSIKAYKGGYCAKGGFVCKCY [Mutation G24A] | 2
GFGCNGPWDEDDMQCHNHCKSIKIYKGGYCAKGGFVCKCY [Mutation G24I] | 2
GFGCNGPWDEDDMQCHNHCKSIKGYKGGYCAKGRFVCKCY [Mutation G34R] | 3
GFGCNGPWDLDDMQCHNHCKSIKGYKGGYCAKGGFVCKCY [Mutation E10L] | 2
GFGCNGPWDEDDMQCHNHCKSIKTYKGGYCAKGGFVCKCY [Mutation G24T] | 2
GFGCNGPWDEDDMQCHNHCKSIKGYKGGYCARGKFVCKCY [K32R + G34K] | 2
GFGCNGPWDEDDAQCHNHCKSIKGYKGGYCAKGGFVCKCY [Mutation M13A] | 2
GFGCNGPRDEDDRQCHNHCKSIKGYKGGYCAKGGFVCKCY [W8R + M13R] | 3
GFGCKGPWDEGDMQCHNHCKSIKGYKGGYCAKGGFVCKCY [N5K + D11G] | 3
GFGCNGPWDEDDMQCHNHCKSIKGYKGGYCAKGGIVCKCY [Mutation F35I] | 2
GFGCNGPWDEDDMQCHNHCKSIKGYKGGHCAKGGFVCKCY [Mutation Y29H] | 2
GFGCNGPWDEDDMQCHNHCKSIKGYKGGYCAKSGFVCKCY [Mutation G33S] | 2
GFGCNGPWWEDDMQCHNHCKSIKGYKGGYCAKGGFVCKCY [Mutation D9W] | 2
GFGCNGPWDEDDMQCHNHCKSIKGYKGGYCYKGGFVCKCY [Mutation A31Y] | 3
GFGCNGPWDEDDMQCHNHCKSIKHYKGGYCAKGGFVCKCY [Mutation G24H] | 3
GFGCNGPWDELDMQCHNHCKSIKGYKGGYCAKGGFVCKCY [Mutation D11L] | 3
GFGCNGPWDEDDMQCHNHCKSIKGYKGGYCQKGGFVCKCY [Mutation A31Q] | 3

Sequence | Activity (antimicrobial activity relative to the activity of plectasin)
GFGCNGPWDEADMQCHNHCKSIKGYKGGYCAKGGFVCKCY [Mutation D11A] | 2
GFGCNGPWDEDDMQCHNHCKSIKGYKGGYCAKTGFVCKCY [Mutation G33T] | 2
GFGCNGPWDEDDMQCHNHCKSIKGYHGGYCAKGGFVCKCY [Mutation K26H] | 2
GFGCNGPWDECDMQCHNHCKSIKGYKGGYCAKGGFVCKCY [Mutation D11C] | 2
GFGCNGPWDEDDMQCHNHCKSIKGYKGGYCAKGGFVCHCY [Mutation K38H] | 2
GFGCNGPWDEDDMQCHNHCKSIKGQKGGYCAKGGFVCKCY [Mutation Y25Q] | 2
GFGCNGPWDEDDMQCHNHCKSIKGYKGGYCTKGGFVCKCY [Mutation A31T] | 3
GFGCNGPWDERDIQCHNHCKSIKGYKGGYCAKGGFVCKCY [D11R + M13I] | 3
GFGCNGPWDEDDVQCHNHCKSIKGYKGGYCAKGGFVCKCY [Mutation M13V] | 3
GFGCNGPWQEDDMQCHNHCKSIKGYKGGYCAKGGFVCKCY [Mutation D9Q] | 3
GFGCNGPWDEDDMQCHNHCKSIKGYKGGYCHKGGFVCKCY [Mutation A31H] | 2
GFGCNGPWDEDDMMCHNHCKSIKGYKGGYCAKGGFVCKCY [Mutation Q14M] | 2
GFGCNGPWDEDDMQCHNHCKSIKGYKGGYCVKGGFVCKCY [Mutation A31V] | 2
GFGCNGPWLEDDMQCHNHCKSIKGYNGGYCAKGGFVCKCY [D9L + K26N] | 2
GFGCNGPWDEDDMQCHNHCKSIKGYKGGYCIKGGFVCKCY [Mutation A31I] | 2
GFGCNGPWDEDDMQCHNHCKSIKGYKGGRCAKGGFVCKCY [Mutation Y29R] | 3
GFGCNGPWDEDDMQCHNFCKSIKGYKGGYCAKGGFVCKCY (Synthetic antimicrobial polypeptide) [Mutation H18F] | 2
GFGCMGPWDEDDMQCHNHCKSIKGYKGGYCAKGGFVCKCY [Mutation N5M] | 2
GFGCNGRWDEDDMQCHNHCKSIKGYKGGYCAKGGFVCKCY [Mutation P7R] | 3
GFGCNGPWAEDDMQCHNHCKSIKGYKGGYCAKGGFVCKCY [Mutation D9A] | 3

Sequence | Activity (antimicrobial activity relative to the activity of plectasin)
GFGCNGPWDEDDMQCHNHCKSIKGYKGGFCARGGFVCKCY [Y29F + K32R] | 2
GFGCNGPWDEDDMQCHNVCKSIKGYKGGYCAKGGFVCKCY [Mutation H18V] | 2
GFGCVGPWDEDDMQCHNHCKSIKGYKGGYCAKGGFVCKCY [Mutation N5V] | 3
GFGCNGPWMEDDMQCHNHCKSIKGYKGGYCAKGGFVCKCY [Mutation D9M] | 3
GFGCNGPWDEDDMQCHNQCKSIKGYKGGYCAKGGFVCKCY [Mutation H18Q] | 2
GFGCNGPWDEDDMQCHNHCKSIKGYKGGYCAKGGFQCKCY [Mutation V36Q] | 2
GFGCNGPWDEDDMQCHNHCKSIKGYKGGYCKKGGFVCKCY [Mutation A31K] | 3
GFGCNGPWDEDDMACHNHCKSIKGYKGGYCAKGGFVCKCY [Mutation Q14A] | 2
GFGCNGPWDCDDMQCHNHCKSIKGYKGGYCAKGGFVCKCY [Mutation E10C] | 2
GFGCNGPWDEDDMQCHNHCKSIKGYFGGYCAKGGFVCKCY [Mutation K26F] | 2
GFGCNGPWDEIDMQCHNHCKSIKGYKGGYCAKGGFVCKCY [Mutation D11I] | 3
GFGCNGPWDEVDMQCHNHCKSIKGYKGGYCAKGGFVCKCY [Mutation D11V] | 3
GFGCNGPWDEDDMQCHNHCKSIKGYKGGFCAKGGFVCKCY [Mutation Y29F] | 3
GFGCNGPWFEDDMQCHNHCKSIKGYKGGYCAKGGFVCKCY [Mutation D9F] | 3
GFGCNGPWDERDMQCHNHCKSIKGYKGGYCAKGGFVCKCY [Mutation D11R] | 3
GFGCNGPWDEDDMQCHNHCKSIKGYKGGYCAKGGFICKCY [Mutation V36I] | 2
GFGCNGPWDEDDMQCHNHCKSIKGYKGGYCAKKGFVCKCY [Mutation G33K] | 3
GFGCNGPWDEDDMTCHNHCKSIKGYKGGYCAKGGFVCKCY [Mutation Q14T] | 2
GFGCNGPWDEGDMQCHNHCKSIKGYKGGYCAKGGFVCKCY [Mutation D11G] | 3
GFGCNGPWDEDDMQCHNHCKSIKGYKGGYCAKQGFVCKCY [Mutation G33Q] | 3
